The CheMixHub viscosity set

Assay: xn = mol fraction of the nth substance listed

[2H]O[2H] + CO
298.15 K, 101 kPa
Details | viscosity [mPa·s]
x2 = 0.0449 | 1.386
x2 = 0.0748 | 1.535
x2 = 0.1437 | 1.783
x2 = 0.2044 | 1.893
x2 = 0.3143 | 1.872
x2 = 0.4238 | 1.711

Cc1ccc(C(C)C)cc1 + COC(C)(C)C
298.15 K, 101.33 kPa
Details | viscosity [mPa·s]
x2 = 0.0616 | 0.7751
x2 = 0.1556 | 0.7225
x2 = 0.3301 | 0.6338
x2 = 0.4987 | 0.5524
x2 = 0.5665 | 0.5253
x2 = 0.6911 | 0.4605
x2 = 0.7665 | 0.4272
x2 = 0.8304 | 0.3998
x2 = 0.8734 | 0.3814
x2 = 0.9298 | 0.3583
x2 = 0.9644 | 0.3467

C=CC#N + COC(C)=O
viscosity [mPa·s]
Details | 298.15 K | 303.15 K | 308.15 K
101.3 kPa, x1 = 0.1018 | – | 0.3427 | –
101.3 kPa, x1 = 0.1999 | – | 0.3428 | –
101.3 kPa, x1 = 0.3006 | – | 0.3407 | –
101.3 kPa, x1 = 0.4001 | – | 0.338 | –
101.3 kPa, x1 = 0.4946 | – | 0.3357 | –
101.3 kPa, x1 = 0.6012 | – | 0.3319 | –
101.3 kPa, x1 = 0.6955 | – | 0.3283 | –
101.3 kPa, x1 = 0.8014 | – | 0.3242 | –
101.3 kPa, x1 = 0.896 | – | 0.3198 | –
101.33 kPa, x1 = 0.0617 | 0.389 | 0.371 | 0.354
101.33 kPa, x1 = 0.1961 | 0.385 | 0.367 | 0.351
101.33 kPa, x1 = 0.3042 | 0.38 | 0.362 | 0.349
101.33 kPa, x1 = 0.4041 | 0.375 | 0.357 | 0.345
101.33 kPa, x1 = 0.5024 | 0.37 | 0.353 | 0.34
101.33 kPa, x1 = 0.6004 | 0.365 | 0.348 | 0.335
101.33 kPa, x1 = 0.7033 | 0.36 | 0.343 | 0.33
101.33 kPa, x1 = 0.8037 | 0.355 | 0.336 | 0.322
101.33 kPa, x1 = 0.8416 | 0.353 | 0.333 | 0.319

CCC(C)(C)O + COC(C)=O
298.15 K, 101.33 kPa
Details | viscosity [mPa·s]
x2 = 0.1632 | 1.792
x2 = 0.2443 | 1.33
x2 = 0.35 | 0.96
x2 = 0.448 | 0.787
x2 = 0.5246 | 0.677
x2 = 0.6222 | 0.57
x2 = 0.7221 | 0.496
x2 = 0.8153 | 0.434
x2 = 0.9107 | 0.395

CCC(C)(C)O + COc1ccccc1
viscosity [mPa·s], 101.33 kPa
Details | x2 = 0.1 | x2 = 0.2 | x2 = 0.2997 | x2 = 0.4001 | x2 = 0.5007 | x2 = 0.5997 | x2 = 0.7012 | x2 = 0.8005 | x2 = 0.9
303.15 K | 2.246 | 1.792 | 1.463 | 1.232 | 1.079 | 0.988 | 0.941 | 0.922 | 0.917
313.15 K | 1.623 | 1.339 | 1.125 | 0.976 | 0.885 | 0.831 | 0.808 | 0.799 | 0.792
323.15 K | 1.206 | 1.023 | 0.885 | 0.798 | 0.751 | 0.73 | 0.719 | 0.709 | 0.697

CN(C)c1ccccc1 + COc1ccccc1
viscosity [mPa·s], 101 kPa
Details | x1 = 0.1072 | x1 = 0.2092 | x1 = 0.3052 | x1 = 0.406 | x1 = 0.5082 | x1 = 0.6053 | x1 = 0.6916 | x1 = 0.7895 | x1 = 0.8939
293.15 K | 1.123 | 1.171 | 1.21 | 1.247 | 1.281 | 1.309 | 1.331 | 1.349 | 1.359
298.15 K | 1.039 | 1.083 | 1.124 | 1.159 | 1.191 | 1.22 | 1.241 | 1.255 | 1.27
303.15 K | 0.957 | 0.994 | 1.032 | 1.064 | 1.092 | 1.116 | 1.135 | 1.142 | 1.158
308.15 K | 0.887 | 0.917 | 0.949 | 0.98 | 1.004 | 1.025 | 1.036 | 1.042 | 1.056
313.15 K | 0.811 | 0.838 | 0.866 | 0.897 | 0.92 | 0.936 | 0.947 | 0.955 | 0.969
318.15 K | 0.767 | 0.791 | 0.815 | 0.845 | 0.869 | 0.883 | 0.889 | 0.898 | 0.911
323.15 K | 0.709 | 0.728 | 0.751 | 0.778 | 0.8 | 0.811 | 0.814 | 0.823 | 0.836

CC(=O)CC(C)=O + CS(C)=O
303.15 K, 101 kPa
Details | viscosity [mPa·s]
x2 = 0.1118 | 0.819
x2 = 0.2207 | 0.9187
x2 = 0.3269 | 1.032
x2 = 0.4303 | 1.117
x2 = 0.5312 | 1.209
x2 = 0.6296 | 1.302
x2 = 0.7256 | 1.427
